Data: paper PMC7827085 (Pharmaceutics, 2021)
Where two headings read alike, the source gives them in different places.

Legend:
ABCB1/MDR1/Pgp [1] = molecular target: T1, ABCB1/MDR1/Pgp (Homo sapiens, UniProt P08183); settings: read-out: Estimated Transporter Inhibition IC50, ABCB1 vesicular assay; ATP-dependent NMQ uptake, HEK-293/ABCB1 inverted membrane vesicles; '-' = no inhibition
OATP2B1 [2] = molecular target: T2, OATP2B1 (Homo sapiens, UniProt O94956); settings: read-out: Estimated Transporter Inhibition IC50, OATP2B1 cellular assay; 20 µM pyranine uptake, 15 min, pH 5.5, A431-OATP2B1 cells; '-' = no interaction
T2 sequence (O94956 1-709): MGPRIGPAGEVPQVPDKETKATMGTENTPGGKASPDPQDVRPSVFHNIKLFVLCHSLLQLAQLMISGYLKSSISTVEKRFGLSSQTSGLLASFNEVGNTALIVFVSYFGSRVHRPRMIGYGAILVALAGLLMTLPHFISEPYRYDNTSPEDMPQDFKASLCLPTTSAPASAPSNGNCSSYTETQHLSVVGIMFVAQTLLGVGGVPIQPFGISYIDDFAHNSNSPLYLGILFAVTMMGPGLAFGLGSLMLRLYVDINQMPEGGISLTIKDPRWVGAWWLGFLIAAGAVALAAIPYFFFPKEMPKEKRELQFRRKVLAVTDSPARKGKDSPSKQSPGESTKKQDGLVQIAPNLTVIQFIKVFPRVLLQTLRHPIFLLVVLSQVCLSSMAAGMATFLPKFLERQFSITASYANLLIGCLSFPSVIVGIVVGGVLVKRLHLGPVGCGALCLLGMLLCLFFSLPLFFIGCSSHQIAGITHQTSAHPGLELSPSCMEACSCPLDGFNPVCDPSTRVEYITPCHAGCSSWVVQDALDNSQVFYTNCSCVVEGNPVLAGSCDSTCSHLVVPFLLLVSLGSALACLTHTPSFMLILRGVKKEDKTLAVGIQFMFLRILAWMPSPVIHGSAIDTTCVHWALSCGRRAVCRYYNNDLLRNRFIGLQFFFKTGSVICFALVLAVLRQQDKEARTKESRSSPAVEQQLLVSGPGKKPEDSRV

ABCB1/MDR1/Pgp [3] = molecular target: T1, ABCB1/MDR1/Pgp; assay: in vitro; settings: read-out: Estimated Transporter Inhibition IC50, ABCB1 cellular assay; Calcein-AM extrusion, PLB-985/ABCB1 cells; relative to full inhibition by 0.25 µM tariquidar; '-' = no significant inhibition
Protocol: (§1) For the ABC transporter assays, we used both cell-based and membrane-based functional assays. […] The respective transport activities were assayed by measuring the cellular fluorescence of the respective transported substrates Phengreen (ABCG2) and Calcein (ABCB1 and ABCC1).
The cells were kept on ice until the flow cytometry measurements. All experiments were performed in triplicate and in at least three biological parallels.
(§2) The cells were kept on ice until the flow cytometry measurements. All experiments were performed in triplicate and in at least three biological parallels. […] The PhenGreen (PG) or Calcein signal was detected in the BL1 channel (emission filter: 530/30 nm). Analysis of the data was carried out by the Attune Nxt Cytometer Software v3.1.2 (Thermo Fischer Scientific, Waltham, MA, USA). The inhibition of transporter activity was calculated by comparing the fluorescence in the presence of the test compound to that in the presence of a specific inhibitor providing maximum inhibition. […] Half-maximum inhibition (IC50) values were calculated by using the Origin2019 software (9.6.5.169, OriginLab Corporation, Northampton, MA, USA). […] In these experiments, we measured Hoechst dye extrusion in HeLa cells stably expressing eGFP and the ABCG2 variants driven by the same promoter—the transgenic cells generated by the Sleeping Beauty transposon system. […] For details, see Zámbó et al.). […] The maximum inhibition was defined for each variant as the fluorescence difference of the samples incubated with and without Ko143, respectively. […] Data analysis was performed using the Attune Nxt Cytometer Software v3.1.2. Two samples per condition and three biological replicates were examined in each experiment.
ABCB1 is a high-affinity active efflux transporter of the viability dye Calcein-AM (CaAM). […] Here, we applied this widely used cellular assay (see https://www.solvobiotech.com/services/categories/dye-efflux-assays) to characterize drug interactions of the applied compounds in intact PLB-985 cells, expressing high levels of the ABCB1 protein.

ABCG2/BCRP [4] = molecular target: T3, ABCG2/BCRP (Homo sapiens, UniProt Q9UNQ0); assay: in vitro; settings: read-out: Estimated Transporter Inhibition IC50, ABCG2 cellular assay; PhenGreen-DA extrusion, PLB-985/ABCG2 cells; relative to 2.5 µM Ko143; '-' = no inhibition
T3 sequence (Q9UNQ0 1-655): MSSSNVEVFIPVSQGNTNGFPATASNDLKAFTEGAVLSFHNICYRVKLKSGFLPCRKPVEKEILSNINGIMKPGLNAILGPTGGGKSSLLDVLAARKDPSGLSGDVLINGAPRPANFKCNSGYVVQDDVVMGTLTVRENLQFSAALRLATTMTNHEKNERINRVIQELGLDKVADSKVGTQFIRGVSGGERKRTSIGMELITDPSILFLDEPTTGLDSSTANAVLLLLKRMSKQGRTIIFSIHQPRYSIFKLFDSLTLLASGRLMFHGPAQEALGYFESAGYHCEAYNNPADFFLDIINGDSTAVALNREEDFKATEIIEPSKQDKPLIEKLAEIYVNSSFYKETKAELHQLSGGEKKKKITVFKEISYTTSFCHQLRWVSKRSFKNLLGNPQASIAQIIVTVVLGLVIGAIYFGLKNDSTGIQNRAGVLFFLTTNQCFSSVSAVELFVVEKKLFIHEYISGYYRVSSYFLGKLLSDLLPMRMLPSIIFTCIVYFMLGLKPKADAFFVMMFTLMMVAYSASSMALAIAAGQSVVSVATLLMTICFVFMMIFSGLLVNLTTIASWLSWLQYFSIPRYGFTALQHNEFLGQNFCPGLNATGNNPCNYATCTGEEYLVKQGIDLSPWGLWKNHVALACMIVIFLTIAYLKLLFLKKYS
Protocol: as §1, §2
Here, we used both PhenGreen-SK diacetate and Hst dye for these measurements. The PhenGreen (PG) assay is a recently patented method applied for ensuring an efficient ABCG2 transport measurement, as the non-fluorescent PhenGreen diacetate (PG-DA) is actively extruded by ABCG2 and the cellular fluorescence is correlated with ABCG2 transport activity. Therefore, we applied this assay to characterize the test drug interactions in intact PLB-985 cells expressing high levels of the ABCG2 protein. […] ABCG2 inhibition by the test compounds was estimated by their relative (%) inhibition compared to full inhibition by Ko143.

ABCG2/BCRP [5] = molecular target: T3, ABCG2/BCRP; assay: in vitro; settings: read-out: Estimated Transporter Inhibition IC50, ABCG2 vesicular assay; ATP-dependent lucifer yellow uptake, HEK-293/ABCG2 vesicles; relative to 1 µM Ko143; '-' = no inhibition
Protocol: These were employed at 37 °C for 10 min (ABCG2), 1 min (ABCB1), or 3 min (ABCC1), with or without 4 mM Mg-ATP, in a 50 μL final volume. The known reference inhibitors of the transporters (1 µM Ko143 for ABCG2, 1 µM Valspodar for ABCB1, and 200 µM Benzbromarone for ABCC1) served as controls. Each test compound was dissolved in DMSO and a 1 µL volume was added to the samples. After incubation, the samples were filtered and washed, and the substrates in the vesicles were dissolved in 10% SDS and transferred onto another plate. After the addition of a stabilizer, the fluorescence was measured in plate readers (Victor X3 and Enspire Perkin-Elmer, Waltham, MA, USA), while the activity of the radiolabeled substrate was measured by liquid scintillation counting (Perkin Elmer MicroBeta2 liquid scintillation counter, Perkin Elmer, Waltham, MA, USA). ABC transporter-related vesicular transport was calculated by subtracting uptake measured in the presence of Mg-AMP from the values measured in the presence of Mg-ATP.
The effects of the test compounds on ABCG2 activity were also measured in a vesicular transport assay by using inverted membrane vesicles prepared from HEK-293 cells expressing high levels of the ABCG2 transporter.

OATP2B1 [6] = tested on: OATP2B1; set-up: method as in PMID 22541068; settings: 20 µM ivermectin, different test substrate; cited from earlier work
SARS-CoV-2 = settings: cited from earlier work

T1 sequence (P08183 whole entry): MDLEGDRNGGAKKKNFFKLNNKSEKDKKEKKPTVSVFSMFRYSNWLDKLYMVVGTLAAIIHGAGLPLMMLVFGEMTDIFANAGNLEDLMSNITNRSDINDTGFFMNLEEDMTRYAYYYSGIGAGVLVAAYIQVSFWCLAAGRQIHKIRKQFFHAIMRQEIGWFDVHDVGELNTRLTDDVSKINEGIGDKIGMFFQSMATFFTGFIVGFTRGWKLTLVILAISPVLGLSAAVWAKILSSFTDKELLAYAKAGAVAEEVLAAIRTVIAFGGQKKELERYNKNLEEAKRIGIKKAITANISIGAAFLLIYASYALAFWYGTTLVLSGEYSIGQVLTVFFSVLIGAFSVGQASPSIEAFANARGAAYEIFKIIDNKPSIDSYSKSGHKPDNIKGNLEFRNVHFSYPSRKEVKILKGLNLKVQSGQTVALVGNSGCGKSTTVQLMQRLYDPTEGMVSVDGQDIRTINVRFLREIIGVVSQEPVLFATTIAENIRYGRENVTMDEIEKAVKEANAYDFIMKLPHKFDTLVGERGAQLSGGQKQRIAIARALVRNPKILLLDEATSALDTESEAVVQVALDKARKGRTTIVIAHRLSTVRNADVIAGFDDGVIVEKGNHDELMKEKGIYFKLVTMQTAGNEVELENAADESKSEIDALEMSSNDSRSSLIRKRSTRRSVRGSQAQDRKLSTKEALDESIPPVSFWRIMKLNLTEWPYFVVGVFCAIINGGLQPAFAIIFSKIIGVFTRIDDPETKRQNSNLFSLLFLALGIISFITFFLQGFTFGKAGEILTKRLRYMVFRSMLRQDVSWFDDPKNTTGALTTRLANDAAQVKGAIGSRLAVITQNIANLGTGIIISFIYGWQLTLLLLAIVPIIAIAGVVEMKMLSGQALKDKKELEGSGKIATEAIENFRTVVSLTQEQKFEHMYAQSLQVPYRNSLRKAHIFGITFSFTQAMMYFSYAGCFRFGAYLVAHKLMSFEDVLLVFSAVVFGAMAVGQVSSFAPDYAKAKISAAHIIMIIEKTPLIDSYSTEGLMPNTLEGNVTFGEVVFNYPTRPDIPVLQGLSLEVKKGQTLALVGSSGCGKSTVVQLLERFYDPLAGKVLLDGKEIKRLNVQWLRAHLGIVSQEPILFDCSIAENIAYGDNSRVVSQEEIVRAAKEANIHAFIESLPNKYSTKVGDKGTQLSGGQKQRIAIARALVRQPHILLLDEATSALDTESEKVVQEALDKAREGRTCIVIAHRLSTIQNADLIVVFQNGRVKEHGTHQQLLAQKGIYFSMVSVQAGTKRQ

## ivermectin
ABCB1/MDR1/Pgp [1]
  IC50: 300 nM
OATP2B1 [2]
  IC50: 8600 nM
ABCB1/MDR1/Pgp [3]
  IC50: 600 nM
ABCG2/BCRP [4]
  IC50: 3100 nM
ABCG2/BCRP [5]
  IC50: 1100 nM
OATP2B1 [6]
  OATP2B1 inhibition found by Karlgren et al.: 39%
SARS-CoV-2
  Plasma concentrations required to reach an in vitro antiviral efficacy: 2 to 10 µM
